Patent US9504702B2, “Methods of inhibition of protein fucosylation in vivo using fucose analogs” (Seattle Genetics, Inc., priority 2010, dated 2016)
Where two headings read alike, the source gives them in different places.

Experiments:
[1] = test system: antibody core fucosylation (CHO DG44 cell line producing humanized IgG1 anti-CD70 antibody h1F6); assay: Inhibition of antibody core fucosylation in CHO DG44 cell culture producing h1F6; format: cell-based; conditions: day 5, CHO DG44 h1F6; for Inhibition at 50 μM: 50 μM fucose analog; for Inhibition at 1 mM / inhibition at 1000 µM: 1 mM fucose analog
Experimental: (§1) Fucose analogs have been evaluated for their effect on antibody core fucosylation at concentrations of 50 μM and 1 mM generally as described in Published US Patent Application 2009-0317869. Briefly, the protocol was as follows: A CHO DG44 cell line producing a humanized IgG1 anti-CD70 monoclonal antibody, h1F6 (see International Patent Publication WO 06/113909) was cultured at 7.5×10^5 cells per mL in 2 mLs of CHO culture media at 37°, 5% CO2 and shaking at 100 RPM in a 6 well tissue culture plate. Media was supplemented with insulin like growth factor (IGF), penicillin, streptomycin and either 1 mM or 50 μM of the fucose analog. On day 5 post inoculation, the culture was centrifuged at 13000 RPM for 5 minutes to pellet the cells; antibodies were then purified from supernatant.
(§2) Antibody purification was performed by applying the conditioned media to protein A resin pre-equilibrated with 1× phosphate buffered saline (PBS), pH 7.4. After washing resin with 20 resin bed volumes of 1×PBS, antibodies were eluted with 5 resin bed volumes of Immunopure IgG elution buffer (Pierce Biotechnology, Rockford, Ill.). A 10% volume of 1M Tris pH 8.0 was added to neutralize the eluted fraction.

[2] = test system: LP-1, a human multiple myeloma cell line (IgG fucosylation); assay: Fucosylation of LP-1-generated IgG, AOL dot blot; format: cell-based; conditions: for % of control fucosylated IgG value / activity at 100 µM: 5 days, AOL dot blot, multiple samples separated by semicolon; for activity at 100 µM: Homo sapiens, LP-1, 120 h, read-out: % of control fucosylated IgG value
Experimental: To further evaluate the activities of different fucose analogs, 48 different fucose analogs and other four glycosylation inhibitors were tested for their ability to affect the fucosylation the LP-1-generated IgG. LP-1 cells (250,000 cells/mL, 3 mL per compound in 6-well plates) were incubated with 100 μM of each fucose analog for 5 days at 37° C. with a humidified atmosphere of 5% CO2 in IgG-depleted tissue culture media (90% RPMI with 10% IgG-depleted heat inactivated FBS). The IgG was isolated as described above using only 0.5 mL of MabSelect™ protein A resin slurry and one spin cup per sample with elution in 400 μL of IgG elution buffer into 25 μL of 9 M Tris buffer, pH 9. The eluates were concentrated to 10-20 μL per sample and 2 μL of each of the concentrated eluates were dotted onto a nitrocellulose membrane and stained with Ponceau S to estimate and adjust the sample loading for AOL staining. From this estimation of total protein in each sample, approximately 0.5 μg of each sample was dotted onto the membrane, air-dried, and stained with Ponceau S. An image of this stained membrane was captured using an Alpha Innotech FlourChem® Q system. The membrane was then blocked with 5% Bovine Serum Albumin (BSA) in Tris Buffered Saline (TBS) for 1 hr, washed with TBST (TBS with […]) 3 times and then incubated with 5 μg/ml biotinylated-AOL for 1 hr. The membrane was washed again with TBST 3 times, followed by Streptavidin-HRP incubation for 30 min and final washes with TBST 3 times.

[3] = test system: antibodies (h1F6 produced by CHO DG44 cell line); assay: Incorporation of fucose analogs into antibodies in CHO DG44 cell culture; format: cell-based
Experimental: as §1, §2
Certain other fucose analogs were tested for their ability to be incorporated into antibodies. These fucose analogs were tested at concentrations of 50 μM and 1 mM using the methodology as described above.

[4] = test system: LP-1 cells (1,6-fucosylation on the antibody); assay: Fucosylation status of LP-1-generated IgG by reducing PLRP-MS; format: cell-based, human; conditions: 100 μM, 5 days, in words
Excerpt: To further define the results of the AOL dot blot, samples of the IgGs produced by cells treated with the following fucose analogs (that gave moderate to strong decreases in the dot blot AOL signal) were isolated and examined by reducing PLRP-MS to verify the fucosylation status using the MW of the heavy chain: alkynyl fucose peracetate; 5-vinylfucose tetraaceate; 5-methylketofucose tetraacetate; 6-bromofucose tetraacetate; 6-fluorofucose tetraacetate; 5-ethylfucose tetraacetate; 5-epoxyfucose tetraacetate; 6′6-difluorofucose tetraacetate; 6-keto-6-ethyl fucose tetraacetate; and 2-fluorofucose peracetate.
40 mL samples of LP-1 cells (250,000 cells/mL) were treated with 100 μM of a fucose analog for 5 days as described above, and the IgGs were purified as described using protein A resin. The yields were estimated by UV spectroscopy assuming an extinction coefficient of 1.4 AU/(mg/mL). Seven of the ten compounds yielded enough IgG to perform the analysis (use of SGD-2067, SGD-1964, and SGD-2020 yielded <10 μg of IgG, likely due to toxicity of the analogs to the cells). The remaining IgGs were reduced with 10 mM DTT at 37° C. for 15 min and were separated on PLRP followed by MS analysis using a QTOF mass spectrometer. The resulting heavy chain peaks were examined and compared to the IgG generated by untreated cells.
The mass spectrometry signals were evaluated by comparing the peak height of the heavy chain versus heavy chain minus fucose and heavy chain minus fucose plus the mass of the fucose analog (which would arise if there was incorporation of the analog into the antibody carbohydrate).

[5] = concentration not given in the cell (tested at 50 μM and 1 mM)
[6] = 120 h, read-out: Inhibition at 50 μM
[7] = CHO-DG44, 120 h, read-out: Inhibition at 50 μM

1-methyl alkynyl fucose triacetate [SGD-2059]
Inhibition at 50 μM [1]: 68% | Inhibition at 1 mM [1]: >80% | % of control fucosylated IgG value ([2]; 100 μM, LP-1 cells): 89 % of control

6-allene fucose tetraacetate [SGD-2097]
Inhibition at 50 μM [1]: 23% | Inhibition at 1 mM [1]: 34% | % Incorporation [3, 5]: ~30% | % of control fucosylated IgG value ([2]; 100 μM, LP-1 cells): 45 % of control

CC(=O)OC1C(C)OC(OC(C)=O)C(F)(F)C1OC(C)=O (stereo not drawn) [2-deoxy-2,2-difluorofucopyranose triacetate (alpha)]
Inhibition at 50 μM [1]: 0% | Inhibition at 1 mM [1]: 64%

CC(=O)OC1C(C)OC(OC(C)=O)C(F)(F)C1OC(C)=O (stereo not drawn) [2-deoxy-2,2-difluorofucopyranose triacetate (beta)]
Inhibition at 50 μM [1]: 0% | Inhibition at 1 mM [1]: 75%

CC(=O)OC(C#N)[C@H]1OC(OC(C)=O)[C@@H](OC(C)=O)[C@@H]1OC(C)=O (some centres unmarked) [5-cyanoarabinofuranose tetraacetate]
Inhibition at 50 μM [1, 6]: 5 to 10%

CC(=O)OC1OC(C#N)[C@@H](OC(C)=O)[C@@H](OC(C)=O)[C@@H]1OC(C)=O (some centres unmarked) [5-cyanoarabinopyranose tetraacetate]
Inhibition at 50 μM [1, 6]: 20%

CC[C@@H]1OC(O)[C@@H](O)[C@H](O)[C@@H]1O (stereo partly drawn) [5-ethyl fucose, (3S,4R,5S,6S)-6-ethyl-tetrahydro-2H-pyran-2,3,4,5-tetraol]
% Incorporation ([3]; 50 uM): >80% | % Incorporation ([3]; 1 mM): >80%

CC(=O)OC1O[C@@H]([C@]2(C)CO2)[C@@H](OC(C)=O)[C@@H](OC(C)=O)[C@@H]1OC(C)=O (stereo partly drawn) [5-methyloxiran-arabinose tetraacetate, (3S.4R.5S.6R)-6-((S)-2-methyloxiran-2-yl)-tetrahydro-2H-pyran-2,3,4,5-tetrayl tetraacetate]
Inhibition at 50 μM [1]: ~0% | Inhibition at 1 mM [1]: ~35-40% | % Incorporation [3, 5]: ~60%

CC(=O)OC1OC(CCl)[C@@H](OC(C)=O)[C@@H](OC(C)=O)[C@@H]1OC(C)=O (stereo partly drawn) [6-chloro-fucose tetraacetate, (3S,4R,5S)-6-(chloromethyl)tetrahydro-2H-pyran-2,3,4,5-tetrayl tetraacetate]
Inhibition at 50 μM [1, 7]: 20% | inhibition at 1000 µM ([1]; CHO-DG44, 120 h): 20 to 30%

CC(=O)OC1OC(CI)[C@@H](OC(C)=O)[C@@H](OC(C)=O)[C@@H]1OC(C)=O (stereo partly drawn) [6-iodo-fucose tetraacetate, (3S,4R,5S)-6-(iodomethyl)tetrahydro-2H-pyran-2,3,4,5-tetrayl tetraacetate]
Inhibition at 50 μM [1, 7]: 3% | inhibition at 1000 µM ([1]; CHO-DG44, 120 h): 30%

C#CC1OC(OC(=O)C(C)(C)C)C(OC(=O)C(C)(C)C)C(OC(=O)C(C)(C)C)C1O (centres unmarked) [Alkynyl fucose 1,2,3-(trimethylacetate), 5-ethynylarabinose 1,2,3-(trimethylacetate)]
Inhibition at 50 μM [1]: ~0%

C#CC1OC(OC(=O)C(C)(C)C)C(O)C(OC(=O)C(C)(C)C)C1O (centres unmarked) [Alkynyl fucose di(trimethylacetate), 5-ethynylarabinose 1,3-(trimethylacetate)]
Inhibition at 50 μM [1]: >80%

C=C(C)[C@@H]1OC(OC(C)=O)[C@@H](OC(C)=O)[C@H](OC(C)=O)[C@@H]1OC(C)=O (stereo partly drawn) [Isopropenyl peracetyl fucose, (3S,4R,5R,6S)-6-(prop-1-en-2-yl)-tetrahydro-2H-pyran-2,3,4,5-tetrayl tetraacetate]
% Incorporation ([3]; 50 uM): >80% (1 mM and 50 uM) | % Incorporation ([3]; 1 mM): >80% (1 mM and 50 uM)

C=CC1OC(OC(C)=O)C(OC(C)=O)C(OC(C)=O)C1OC(C)=O (centres unmarked) [SGD-1922, 5-ethylenylarabinose tetraacetate]
Inhibition at 50 μM [1]: ~0% | Inhibition at 1 mM [1]: ~4% | % of control fucosylated IgG value ([2]; 100 μM, LP-1 cells): 2 % of control | dot blot results (% fucose signal of control) ([2]; LP-1-generated IgG, 100 μM): 2 % fucose signal of control | PLRP/MS (inhibition or incorporation) [4]: Full incorporator

CC(=O)OC(CC(=O)O)[C@@H](OC(C)=O)[C@@H](OC(C)=O)[C@@H](C=O)OC(C)=O (some centres unmarked) [SGD-1959, 5-carboxymethyl arabinose tetraacetate]
Inhibition at 50 μM [1, 6]: 30% | inhibition at 1000 µM ([1]; 120 h): > 80% | activity at 100 µM ([2]; LP-1 cells): 94%

C#CC[C@@H]1OC(OC(C)=O)[C@@H](OC(C)=O)[C@H](OC(C)=O)[C@@H]1OC(C)=O (stereo partly drawn) [SGD-1987, (3S,4R,5R,6S)-6-(prop-2-ynyl)-tetrahydro-2H-pyran-2,3,4,5-tetrayl tetraacetate]
Inhibition at 50 μM [1, 6]: ~10% | inhibition at 1000 µM ([1]; 120 h): 10 to 20% | % Incorporation ([3]; 1 mM): 80% (1 mM) | activity at 100 µM ([2]; LP-1 cells): 38%

C#C[C@@H]1OC(OC(=O)CC)[C@@H](OC(=O)CC)[C@H](OC(=O)CC)[C@@H]1OC(=O)CC (some centres unmarked) [SGD-2010, 5-ethynylarabinose tetrapropropanoate]
Inhibition at 50 μM [1]: >80% | Inhibition at 1 mM [1]: >80% | % of control fucosylated IgG value ([2]; 100 μM, LP-1 cells): 1.5 % of control | inhibition of IgG fucosylation in human cells (decrease in AOL signal, dot blot) ([2]; 100 μM, LP-1 cells): potentially strong inhibitors

C#CC(OC(=O)CCCCC)[C@@H](OC(=O)CCCCC)[C@@H](OC(=O)CCCCC)[C@@H](C=O)OC(=O)CCCCC (some centres unmarked) [SGD-2012, 5-ethynylarabinose tetrahexanoate]
Inhibition at 50 μM [1, 7]: > 80% | inhibition at 1000 µM ([1]; CHO-DG44, 120 h): > 80% | activity at 100 µM ([2]; LP-1 cells): 67%

CC(=O)O[C@@H]1[C@H](OC(C)=O)[C@H](C)OC(F)[C@H]1F (some centres unmarked) [SGD-2082, 1,2-difuloro fucose diacetate]
Inhibition at 50 μM [1]: >80% | Inhibition at 1 mM [1]: >80% | % of control fucosylated IgG value ([2]; 100 μM, LP-1 cells): 87 % of control

CC(=O)OC1CC(OC(C)=O)C(OC(C)=O)C(C)O1 (centres unmarked) [SGD-2108, 6-methyl-tetrahydro-2H-pyran-2,4,5-triyl triacetate]
Inhibition at 50 μM [1, 7]: 0% | activity at 100 µM ([2]; LP-1 cells): 104%

alkynyl fucose tetra PEG ester [SGD-2057]
Inhibition at 50 μM [1]: >80% | Inhibition at 1 mM [1]: >80% | % of control fucosylated IgG value ([2]; 100 μM, LP-1 cells): 64 % of control

alkynyl fucose tetraisobutanoate [SGD-2043]
Inhibition at 50 μM [1]: >80% | Inhibition at 1 mM [1]: >80% | % of control fucosylated IgG value ([2]; 100 μM, LP-1 cells): 34 % of control

alkynyl fucose tetraisonicotinate [SGD-2058]
Inhibition at 50 μM [1]: >80% | Inhibition at 1 mM [1]: >80% | % of control fucosylated IgG value ([2]; 100 μM, LP-1 cells): 34 % of control

alkynyl fucose tetranicotinate [SGD-2047]
Inhibition at 50 μM [1]: >80% | Inhibition at 1 mM [1]: >80% | % of control fucosylated IgG value ([2]; 100 μM, LP-1 cells): 50 % of control

benzyloxy fucose tetraacetate [SGD-2048]
Inhibition at 50 μM [1]: 0% | Inhibition at 1 mM [1]: 75% | % of control fucosylated IgG value ([2]; 100 μM, LP-1 cells): 114 % of control
